The target in one experiment is KRAS-WT (Homo sapiens, UniProt P01116). Description: SOS-catalyzed nucleotide exchange assay (Procedure A, TR-FRET), KRAS-WT. The class given is biochemical. In short, it runs like this:
(§1)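 Inhibitors stabilizing the Bodipy-GDP state are detected as retained TR-FRET from a preformed biotinylated RAS/Tb-streptavidin complex. They are preincubated 60 min at room temperature, then human SOS and 3 mM GTP are added. G12V runs 90 min at 1.25 nM RAS/160 nM SOS. G12C (3 nM), WT (1 nM) and NRAS (1.25 nM) run 60 min with 40 nM SOS.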

The target in the next experiment is KRAS-G12V (Homo sapiens, UniProt P01116, G12V). Nature of the experiment: SOS-catalyzed nucleotide exchange assay (Procedure A, TR-FRET), KRAS-G12V. Type of experiment: biochemical. In short, it runs like this: as §1
The target of another experiment is KRAS-G12D (Homo sapiens, UniProt P01116, G12D). Nature of the experiment: SOS-catalyzed nucleotide exchange assay (Procedure A, TR-FRET), KRAS-G12D. The class given is biochemical. In short, it runs like this: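 Signal ratio (520/495 nm, excitation 340 nm) reports Bodipy-GDP retention on biotinylated RAS after SOS-catalyzed exchange with 3 mM GTP. SOS was 40 nM, except 160 nM for G12V. Room-temperature exchange lasted 60 min (90 min for G12V), following a 60 min compound preincubation.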
On the technique in general: TR-FRET usually uses a lanthanide donor and a delayed reading to cut background.

Another experiment concerns AsPC-1 cells. Nature of the experiment: Cellular phospho-ERK assay, AsPC-1 cells (homozygous KRAS-G12D). Type of experiment: cell-based. Particulars: Homo sapiens, read-out: AsPC1 pERK IC50. A digest of the protocol:
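Cells seeded at 10,000-15,000 per well were incubated overnight, then exposed to compound for 2 hours at 37 °C in a 10-point, 1:3 series topping at 30 μM final. Lysates were assayed by Alpha SureFire Ultra multiplex for p-ERK and total ERK; IC50 came from a 4-parameter logistic fit of their ratio.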

[1] abbreviates: nucleotide exchange, read-out: KRAS WT GNE IC50.
[2] abbreviates: nucleotide exchange, read-out: KRAS G12V GNE IC50.
Setting [3] is: nucleotide exchange, read-out: KRAS G12D GNE IC50.
[4] abbreviates: ASPC1, 2 h, 2 hours compound incubation.

pIC50: −log10 of the molar value. Where two headings read alike, the source gives them in different places.

KRAS-WT, sequence (P01116 with tags, fused parts or gaps isoform P01116-2): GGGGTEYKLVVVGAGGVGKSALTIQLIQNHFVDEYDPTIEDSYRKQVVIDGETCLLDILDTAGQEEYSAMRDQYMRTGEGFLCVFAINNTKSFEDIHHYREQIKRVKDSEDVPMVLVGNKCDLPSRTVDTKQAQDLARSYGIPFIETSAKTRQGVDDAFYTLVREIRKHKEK
KRAS-G12V, sequence (P01116 with tags, fused parts or gaps isoform P01116-2 G12V): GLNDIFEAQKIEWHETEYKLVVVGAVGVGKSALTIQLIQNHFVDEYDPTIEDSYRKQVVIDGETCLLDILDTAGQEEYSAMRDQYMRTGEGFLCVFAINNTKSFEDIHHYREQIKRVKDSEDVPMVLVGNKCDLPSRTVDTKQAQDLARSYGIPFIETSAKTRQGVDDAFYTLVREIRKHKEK
KRAS-G12D, sequence (P01116 with tags, fused parts or gaps isoform P01116-2 G12D): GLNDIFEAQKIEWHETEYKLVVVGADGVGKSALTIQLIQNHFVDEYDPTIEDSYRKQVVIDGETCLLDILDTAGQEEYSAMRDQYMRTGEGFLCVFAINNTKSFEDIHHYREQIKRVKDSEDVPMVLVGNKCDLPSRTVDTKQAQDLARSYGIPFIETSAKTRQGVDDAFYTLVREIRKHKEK

The term pIC50 denotes the IC50 on a negative log10 scale, so that one unit is a factor of ten. `C[C@@]1(O)COCCN(c2nc(OC[C@]3(CN4CC(C#N)C4)CC3(F)F)nc3sc4c(-c5c(C6(F)CC6)c(Cl)cc6[nH]ncc56)nccc4c23)C1` [Ex-238, 1-(((IR)-1-(((8-(6-chloro-5-(1-fluorocyclopropyl)-1H-indazol-4-yl)-4-((S)-6-hydroxy-6-methyl-1,4-oxazepan-4-yl)pyrido[4′,3′:4,5]thieno[2,3-d]pyrimidin-2-yl)oxy)methyl)-2,2-difluorocyclopropyl)methyl]a-zetidine-3-carbonitrile]: the pIC50 at KRAS-WT (setting [1]) was 6.35; on KRAS-G12V (setting [2]), 6.40; at KRAS-G12D (setting [3]), 6.95; in the experiment on AsPC-1 cells (setting [4]) it was 5.38.
Take `C[C@@]1(O)COCCN(c2nc(OC[C@]3(CN4CC5CC4(CF)C5)CC3(F)F)nc3sc4c(-c5c(C6(F)CC6)c(Cl)cc6[nH]ncc56)nccc4c23)C1` [Ex-259, (6S)-4-(8-(6-chloro-5-(1-fluorocyclopropyl)-1H-indazol-4-yl)-2-(((R)-2,2-difluoro-1-((1-(fluoromethyl)-2-azabicyclo[2.1.1]hexan-2-yl)methyl)cyclopropyl)metho-xy)pyrido[4′,3′:4,5]thieno[2,3-d]pyrimidin-4-yl)-6-methyl-1,4-oxazepan-6-ol]: the pIC50 is 7.10 at KRAS-WT (setting [1]), 7.47 at KRAS-G12V (setting [2]), 7.95 at KRAS-G12D (setting [3]) and 6.73 in the experiment on AsPC-1 cells (setting [4]).
With `C[C@@H]1C[C@@H](COc2nc(N3CCOC[C@@](C)(O)C3)c3c(n2)sc2c(-c4c(C5CC5)c(C(F)(F)F)cc5[nH]ncc45)nccc23)N(C)C1` [Ex-83, (6S)-4-(8-(5-cyclopropyl-6-(trifluoromethyl)-1H-indazol-4-yl)-2-(((2S,4R)-1,4-dimethylpyrrolidin-2-yl)methoxy)pyrido[4′,3′:4,5]thi-eno[2,3-d]pyrimidin-4-yl)-6-methyl-1,4-oxazepan-6-ol], the negative logarithm of the IC50 (pIC50) on KRAS-WT (setting [1]) is 6.89; at KRAS-G12V (setting [2]), 6.99; at KRAS-G12D (setting [3]), 7.10; in the experiment on AsPC-1 cells (ASPC1, 2 h, KRAS-G12D, 2 hours), 5.87.
As to `COC1CC2(C1)CN(C[C@@]1(COc3nc(N4CCOC[C@@](C)(O)C4)c4c(n3)sc3c(-c5c(C6(F)CC6)c(Cl)cc6[nH]ncc56)nccc34)CC1(F)F)C2` [Ex-263, (6S)-4-(8-(6-chloro-5-(1-fluorocyclopropyl)-1H-indazol-4-yl)-2-(((R)-2,2-difluoro-1-((6-methoxy-2-azaspiro[3.3]heptan-2-yl)methyl)cyclopropyl)metho-xy)pyrido[4′,3′:4,5]thieno[2,3-d]pyrimidin-4-yl)-6-methyl-1,4-oxazepan-6-ol], the pIC50 on KRAS-WT (setting [1]) was 7.94; at KRAS-G12V (setting [2]), 7.90; at KRAS-G12D (setting [3]), 8.52; in the experiment on AsPC-1 cells (setting [4]), 6.95.
With `C[C@@]1(O)COCCN(c2nc(OC[C@]3(CN4CC5CC5C4)CC3(F)F)nc3sc4c(-c5c(C6(F)CC6)c(Cl)cc6[nH]ncc56)nccc4c23)C1` (stereo partly drawn) [Ex-237, (6S)-4-(2-(((1R)-1-((3-azabicyclo[3.1.0]hexan-3-yl)methyl)-2,2-difluorocyclopropyl)methoxy)-8-(6-chloro-5-(1-fluorocyclopropyl)-1H-indazol-4-yl)pyrido[4′,3′:4,5]thieno[2,3-d]pyrimidin-4-yl)-6-methyl-1,4-oxazepan-6-ol], the pIC50 on KRAS-WT (setting [1]) is 6.80; on KRAS-G12V (setting [2]) it was 7.48; at KRAS-G12D (setting [3]), 7.60; in the experiment with AsPC-1 cells (setting [4]) it was 6.53.
In the case of `C[C@@]1(O)COCCN(c2nc(OC[C@@]34CCCN3C[C@H](F)C4)nc3sc4c(-c5c(C6CC6)c(C#N)cc6[nH]ncc56)nccc4c23)C1` [Ex-51, 5-cyclopropy1-4-(2-(((2R,7aS)-2-fluorotetrahydro-1H-pyrrolizin-7a(5H)-yl)methoxy)-4-((S)-6-hydroxy-6-methyl-1,4-oxazepan-4-yl)pyrido[4′,3′:4,5]thieno [2,3-d]pyrimidin-8-yl)-1H-indazole-6-carbonitrile], the pIC50 was 6.63 at KRAS-WT (setting [1]); 6.85 at KRAS-G12V (setting [2]); 6.94 at KRAS-G12D (setting [3]); 5.85 in the experiment on AsPC-1 cells (ASPC1, 2 h, KRAS-G12D, 2 hours).
With `C[C@@]1(O)COCCN(c2nc(OC[C@]3(CN4CC5(CCC5)C4)CC3(F)F)nc3sc4c(-c5c(C6(F)CC6)c(Cl)cc6[nH]ncc56)nccc4c23)C1` [Ex-256, (6S)-4-(2-(((R)-1-((2-azaspiro[3.3]heptan-2-yl)methyl)-2,2-difluorocyclopropyl)methoxy)-8-(6-chloro-5-(1-fluorocyclopropyl)-1H-indazol-4-yl)pyrido[4′,3′:4,5]thieno[2,3-d]pyrimidin-4-yl)-6-methyl-1,4-oxazepam-6-ol], the pIC50 against KRAS-WT (KRAS WT GNE IC50, nucleotide exchange) was 7.78; on KRAS-G12V (KRAS G12V GNE IC50, nucleotide exchange), 7.96; at KRAS-G12D (KRAS G12D GNE IC50, nucleotide exchange) it was 8.36; in the experiment with AsPC-1 cells (ASPC1, 2 hours compound incubation), 6.90.
For the compound `Cc1cc2[nH]ncc2c(-c2nc(C#N)cc3c2sc2nc(OC[C@@]45CCCN4C[C@H](F)C5)nc(N4CCOC[C@@](C)(O)C4)c23)c1C(F)(F)F` [Ex-31, 2-(((2R,7aS)-2-fluorotetrahydro-1H-pyrrolizin-7a(5H)-yl)methoxy)-4-((S)-6-hydroxy-6-methyl-1,4-oxazepan-4-yl)-8-(6-methyl-5-(trifluoromethyl)-1H-indazol-4-yl)pyrido[4′,3′:4,5]thieno[2,3-d]pyrimidine-6-carbonitrile], the pIC50 is 6.24 at KRAS-WT (setting [1]); 6.66 on KRAS-G12V (setting [2]); 6.52 at KRAS-G12D (setting [3]); 5.88 in the experiment on AsPC-1 cells (ASPC1, 2 h, KRAS-G12D, 2 hours).
The like results for `Cc1cc2[nH]ncc2c(-c2nccn3c2c(Cl)c2nc(OC[C@@]45CCCN4C[C@H](F)C5)nc(N4CCOC[C@@](C)(O)C4)c23)c1C1CC1` (single isomer, unassigned) [Ex-297] were, in that order, 7.17, 7.24, 7.64 and 6.20.
For `C[C@@]1(O)COCCN(c2nc(OC[C@]3(CN4C[C@@H]5CCCO[C@H]5C4)CC3(F)F)nc3sc4c(-c5c(C6(F)CC6)c(Cl)cc6[nH]ncc56)nccc4c23)C1` [Ex-252, (6S)-4-(8-(6-chloro-5-(1-fluorocyclopropyl)-1H-indazol-4-yl)-2-(((R)-2,2-difluoro-1-(((4aS,7aR)-hexahydropyrano[2,3-c]pyrrol-6(2H)-yl)methyl)cyclopropyl)methoxy)pyrido[4′,3′:4,5]thieno[2,3-d]pyrimidin-4-yl)-6-methyl-1,4-oxazepan-6-ol], the pIC50 was 7.24 on KRAS-WT (setting [1]), 7.49 on KRAS-G12V (setting [2]), 8.30 on KRAS-G12D (setting [3]) and 6.64 in the experiment with AsPC-1 cells (setting [4]).
In the case of `C#Cc1c(F)ccc2cc3[nH]ncc3c(-c3nccc4c5c(N6CCOC[C@@](C)(O)C6)nc(OC[C@@]67CCCN6C[C@H](F)C7)nc5n(C)c34)c12` [Ex-25, (6S)-4-(8-(5-ethynyl-6-fluoro-1H-benzo[f]indazol-4-yl)-2-(((2R,7aS)-2-fluorotetrahydro-1H-pyrrolizin-7a(5H)-yl)methoxy)-9-methyl-9H-pyrido[4′,3′:4,5]pyrrolo[2,3-d]pyrimidin-4-yl)-6-methyl-1,4-oxazepan-6-ol], the pIC50 was 6.87 at KRAS-WT (setting [1]); 7.05 on KRAS-G12V (setting [2]); 7.21 on KRAS-G12D (setting [3]); 5.94 in the experiment on AsPC-1 cells (ASPC1, 2 h, KRAS-G12D, 2 hours).
For `CNc1cc2c(sc3nc(OC[C@@]45CCCN4C[C@H](F)C5)nc(N4CCOC[C@@](C)(O)C4)c32)c(-c2c(C(F)(F)F)c(C)cc3[nH]ncc23)n1` [Ex-30, (6S)-4-(2-(((2R,7aS)-2-fluorotetrahydro-1H-pyrrolizin-7a(5H)-yl)methoxy)-8-(6-methyl-5-(trifluoromethyl)-1H-indazol-4-yl)-6-(methylamino)pyrido[4′,3′:4,5]thieno[2,3-d]pyrimidin-4-yl)-6-methyl-1,4-oxazepan-6-ol], in that order: 6.36, 6.71, 6.80 and 6.14.
As for `Cc1cc2[nH]ncc2c(-c2nccc3c2sc2nc(OC[C@@]45CCCN4C[C@H](F)C5)nc(N4CCCC5(CC(=O)N5)C4)c23)c1C(F)(F)F` (stereo partly drawn) [Ex-195, 6-(2-(((2R,7aS)-2-fluoro-tetrahydro-1H-pyrrolizin-7a(5H)-yl)methoxy)-8-(6-methyl-5-(trifluorometh-yl)-1H-indazol-4-yl)pyrido [4′,3′:4,5]thieno[2,3-d]pyrimidin-4-yl)-1,6-diaza-spiro[3.5]nonan-2-one], the negative logarithm of the IC50 (pIC50) is 6.60 at KRAS-WT (setting [1]), 7.11 on KRAS-G12V (setting [2]), 7.12 at KRAS-G12D (setting [3]) and 5.12 in the experiment with AsPC-1 cells (setting [4]).
The like results for `C[C@@]1(O)COCCN(c2nc(OC[C@]3(CN4CC5(CCO5)C4)CC3(F)F)nc3sc4c(-c5c(C6(F)CC6)c(Cl)cc6[nH]ncc56)nccc4c23)C1` [Ex-265, (6S)-4-(2-(((R)-1-((1-oxa-6-azaspiro[3.3]heptan-6-yl)methyl)-2,2-difluorocyclopropyl)methoxy)-8-(6-chloro-5-(1-fluorocyclopropyl)-1H-indazol-4-yl)pyrido[4′,3′:4,5]thieno[2,3-d]pyrimidin-4-yl)-6-methyl-1,4-oxazepan-6-ol] were, in that order, 7.61, 7.83, 8.38 and 6.70.
